Results as given in patent US20220144913A1, “PERSONALIZED AND TIMED RELEASE OF BIOMOLECULES” (The General Hospital Corporation, priority 2019, published 2022).
Entries after “also recorded” stand apart in the source; their conditions may differ. Read-outs that look alike come from different tables or passages of the source.

Key:
[1] = system: circadian clocks of Jurkat human leukemic T-cells; assay: KL001 disruption of circadian clock driven GLUC secretion, continuous flow; assay type: cell-based; settings: 20 μM KL001 for 24 hours before dexamethasone synchronization
Description: Luminescence was recorded by the device as relative luminescence units (RLU). Continuous monitoring of plasma luciferase from mice is described in a separate section below. To monitor continuous secretion of luciferase from cells in vitro over time, cells were seeded onto a custom-made constant flow cell culture and collection device. For each experiment, 16×10^6 cells in approximately 2 ml of media were injected into a tube-like bag made from air permeable material (Rogers Corporation HT-6240 Transparent 0.010″) with approximate dimensions of 20 cm in length and 0.6 cm in diameter. We have previously shown that vessels made from this material are optimal for the expansion of human T-cells (Li et al. 2018). Silicone tubing (Platinum LS14 Masterflex cat #96410-14) was used to connect the cell containing vessel to media filled syringes operated by a PHD 2000 syringe pump (Harvard Apparatus) and to a Biologic Biofrac fraction collector (Biorad). Cells were allowed to settle for 3-4 hours prior to flowing media at 3.8 ml/hour. […] For circadian experiments, cells were synchronized with 10 μM dexamethasone (Sigma cat #D4902) for 30 minutes, washed 3 times with PBS and seeded onto a continuous flow vessel either immediately or after a 24-hour incubation. […]

NFkB = assay: NFkB-GLuc reporter stimulation in HepG2 hepatocytes; assay type: cell-based; settings: two doses of stimulant; media sampled after 12 hours
Description: HepG2 hepatocytes were engineered with the NFkB-GLuc construct and stimulated with either inflammatory LPS or IL-1b at two different doses.

[2] = in vivo; cited from earlier work
[3] = in vivo; cited from earlier work; remark: listed apart in the source
DS-1 cells = assay: IL-6-dependent proliferation of DS-1 cells in sGP130 conditioned media; assay type: cell-based; settings: conditioned media with secreted sGP130 from cells engineered with EF1α-sGP130
Description: Media from cells engineered with EF1a-sGP130 constructs was sampled, along with cell lysate, showing that measurable protein levels increase over time (FIG. 15A).
Media from cells engineered with EF1α-sGP130 constructs was sampled, along with cell lysate, showing that measurable protein levels increase over time (FIG. 15A).

For `CS(=O)(=O)N(Cc1ccco1)CC(O)Cn1c2ccccc2c2ccccc21` (stereo not shown) [KL001], the “effect on dynamic nature of Circa2 driven GLUC secretion” value ([1]; stable Jurkat Circa2-GLUC cells) was “severely disrupting the dynamic nature; also recorded: abolishes dynamic nature” and the “effect on EF1α driven GLUC secretion” value ([1]; stable Jurkat EF1α-GLUC cells) was “little to no effect”.

With “IL-1b: cytokine stimulant acting on a different response element (MAPK)” the “relative GLuc signal” value (NFkB) was “not stimulated”.

In the case of bacterial lipopolysaccharide [LPS], the “relative GLuc signal” value (NFkB) is reported as “increased dose dependently”.

For “glucagon-like petide-1 (HAEGTFTSDVSSYLEGQAAKEEFIIAWLVKGRG; listed as Homo sapiens) [GLP1]”, the half-life [2] is given as 30 min.

In the case of parathyroid hormone [PTH], the half-life [3] is listed as “around 5 minutes”.

B1: sGP130: soluble GP130 secreted from cells engineered with EF1α-sGP130 constructs; inhibits IL-6 signaling (protein)
chain: QLLEPCGYIYPEFPVVQRGSNFTAICVLKEACLQHYYVNASYIVWKTNHAAVPREQVTVINRTTSSVTFTDVVLPSVQLTCNILSFGQIEQNVYGVTMLSGFPPDKPTNLTCIVNEGKNMLCQWDPGRETYLETNYTLKSEWATEKFPDCQSKHGTSCMVSYMPTYYVNIEVWVEAENALGKVSSESINFDPVDKVKPTPPYNLSVTNSEELSSILKLSWVSSGLGGLLDLKSDIQYRTKDASTWIQVPLEDTMSPRTSFTVQDLKPFTEYVFRIRSIKDSGKGYWSDWSEEASGTTYEDRPSRPPSFWYKTNPSHGQEYRSVRLIWKALPLSEANGKILDYEVILTQSKSVSQTYTVTGTELTVNLTNDRYVASLAARNKVGKSAAAVLTIPSPHVTAAYSVVNLKAFPKDNLLWVEWTPPPKPVSKYILEWCVLSENAPCVEDWQQEDATVNRTHLRGRLLESKCYQITVTPVFATGPGGSESLKAYLKQAAPARGPTVRTKKVGKNEAVLAWDQIPVDDQNGFIRNYSISYRTSVGKEMVVHVDSSHTEYTLSSLSSDTLYMVRMAAYTDEGGKDGPEFTFTTPKFAQGEIE
In the case of B1, the “proliferation of DS-1 cells” value (DS-1 cells) is reported as “proliferation is suppressed; also recorded: suppress IL-6-dependent proliferation”.
